Source: patent publication US20110086388A1, “CHAPERONE-ASSISTED PROTEIN EXPRESSION AND METHODS OF USE” (Duke University, priority 2009, published 2011)

What was measured:
[1] = tested on: vancomycin-resistant Enterococcus faecium (VRE); details: cited from earlier work
[2] = tested on: methicillin-resistant Staphylococcus aureus (MRSA); details: cited from earlier work
[3] = tested on: Actinoplanes ATCC 33076 Ramo16, NAD dependent reductase (native protein, no fusion tag); experiment: Ramo16 activity assay (continuous spectrophotometric, decrease in NADH absorbance at 340 nm); assay type: biochemical; details: pseudo-substrate acetoacetyl-CoA varied 0 to 5 mM; 250 μM NADH fixed; 10 μM Ramo16; 50 mM HEPES, pH 7.6, 100 mM NaCl; 25° C.
Protocol: FIG. 8 is a kinetic profile of Ramo16 (10 μM) with varied acetoacetyl-CoA (0 to 5 mM) and fixed NADH (250 μM).
Ramo16, the NAD dependent reductase, was expressed natively in autoinduction media to prevent the formation of insoluble aggregates. Expression in a His6-tagged expression vector led to protein instability and ultimately precipitation.
Cloning and Purification of Ramo16: The ramo16 gene was obtained by PCR amplification from cosmid DNA (OO8CK) from Actinoplanes ATCC 33076 using Herculase Hot Start Polymerase with the following primers: the C-terminal his-tag were Ramo16C-F (5′-GGGAATTCCATATGCGCTTGACCGGCAAGACCCCG-3′), Ramo16C-R (5′-CCCAAGCTTGCGCGTGGTGAATCCGCCGTCGAC-3′, and the N-terminal his-tag were Ramo16N-F (5′-TATACCATGGCTCGCTTGACCGGCAAGAC-3′). and Ramo16N-R (5′-TATAGGATCCTCAGCGCGTGGTGAATCCG-3′). The amplified gene products were cloned into the Zero Blunt Cloning Vector and sequenced. […] Fractions were analyzed by SDS-PAGE and the band corresponding to Ramo16 was excised and the identity of the protein confirmed by Q-TOF. […]
Ramo 16 Activity Assay: Initial rates of Ramo16 were determined by monitoring the decrease in absorbance of NADH at 340 nm at 25° C. The 100 μL reactions were monitored in half-area clear bottom Corning plates using a 96 well plate SpectraMax Molecular Devices spectrophotometer. […]

Compound	effectiveness against VRE [1]	effectiveness against MRSA [2]	Km [3] [µM]	kcat [3] [s⁻¹]
ramoplanin A2	highly effective	highly effective	–	–
CC(=O)CC(=O)SCCNC(=O)CCNC(=O)[C@H](O)C(C)(C)COP(=O)(O)OP(=O)(O)OC[C@H]1O[C@@H](n2cnc3c(N)ncnc32)[C@H](O)[C@@H]1OP(=O)(O)O [acetoacetyl-Coenzyme A]	–	–	2350 ± 390	15.7 ± 1.2
